Experimental data as given in patent US11697648B2, “Fused pyrimidine pyridinone compounds as JAK inhibitors” (THERAVANCE BIOPHARMA R&D IP, LLC, priority 2019, dated 2023).

What was measured:
JAK3 = JAK3 (Homo sapiens (Human), UniProt P52333); experiment: Biochemical JAK3 kinase assay (LanthaScreen)
In short: (§1)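 GST-JAK + GFP-STAT1 peptide, HEPES pH 7.5/MgCl2/EGTA/Brij-35 buffer; cpd preincubation 1 h RT; ATP start, 1 h RT; stop with 10 mM EDTA + 2 nM Tb-anti-pSTAT1; TR-FRET 520/495. 4-parameter IC50 → pKi (Cheng-Prusoff).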

[1] = system: IL-2 stimulated STAT5 phosphorylation in Tall-1 human T cell line (JAK3); experiment: Cellular JAK3 potency assay: inhibition of IL-2 stimulated pSTAT5 in Tall-1 T cells; type: cell-based
In short: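 AlphaLISA SureFire Ultra measures STAT5 Tyr694/699 phosphorylation in lysed Tall-1 human T cells. Cells were exposed to compound for 1 h at 37 °C before a 30 min IL-2 challenge (300 ng/ml final). Values are pIC50 means with standard deviation from signal-versus-concentration curves.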

JAK2 = JAK2 (Homo sapiens (Human), UniProt O60674); experiment: Biochemical JAK2 kinase assay (LanthaScreen)
Sequence of JAK2 (O60674 whole entry): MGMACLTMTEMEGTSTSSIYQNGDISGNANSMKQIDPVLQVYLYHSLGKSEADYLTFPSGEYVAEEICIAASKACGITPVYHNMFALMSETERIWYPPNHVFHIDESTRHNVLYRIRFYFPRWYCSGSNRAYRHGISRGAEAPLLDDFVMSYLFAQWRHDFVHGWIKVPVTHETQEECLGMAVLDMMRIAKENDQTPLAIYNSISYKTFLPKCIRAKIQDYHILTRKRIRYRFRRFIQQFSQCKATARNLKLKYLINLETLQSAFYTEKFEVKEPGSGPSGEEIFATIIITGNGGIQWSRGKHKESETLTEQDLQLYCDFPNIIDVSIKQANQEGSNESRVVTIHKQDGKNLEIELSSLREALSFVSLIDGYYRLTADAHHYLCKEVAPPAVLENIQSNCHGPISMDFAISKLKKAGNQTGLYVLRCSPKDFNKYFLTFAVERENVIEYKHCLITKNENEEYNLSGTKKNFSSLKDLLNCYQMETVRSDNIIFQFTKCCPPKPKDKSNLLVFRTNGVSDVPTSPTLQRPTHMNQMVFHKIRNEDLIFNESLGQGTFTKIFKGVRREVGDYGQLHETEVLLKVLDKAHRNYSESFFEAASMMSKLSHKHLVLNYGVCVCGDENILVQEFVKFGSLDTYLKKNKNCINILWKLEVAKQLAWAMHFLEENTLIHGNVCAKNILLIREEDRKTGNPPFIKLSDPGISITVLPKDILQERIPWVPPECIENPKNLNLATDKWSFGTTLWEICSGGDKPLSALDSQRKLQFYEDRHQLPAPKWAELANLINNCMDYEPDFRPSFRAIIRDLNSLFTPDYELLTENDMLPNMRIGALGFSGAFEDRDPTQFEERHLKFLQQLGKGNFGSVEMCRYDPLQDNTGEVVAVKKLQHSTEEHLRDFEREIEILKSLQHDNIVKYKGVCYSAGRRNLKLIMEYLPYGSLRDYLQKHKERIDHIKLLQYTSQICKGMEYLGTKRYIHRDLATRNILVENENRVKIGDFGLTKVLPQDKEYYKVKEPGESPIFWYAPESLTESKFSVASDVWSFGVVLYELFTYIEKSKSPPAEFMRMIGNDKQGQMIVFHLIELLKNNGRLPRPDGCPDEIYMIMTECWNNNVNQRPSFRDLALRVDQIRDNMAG
In short: as §1

Tyk2 = Tyk2 (Homo sapiens (Human), UniProt P29597); experiment: Biochemical Tyk2 kinase assay (LanthaScreen)
Sequence of Tyk2 (P29597 whole entry): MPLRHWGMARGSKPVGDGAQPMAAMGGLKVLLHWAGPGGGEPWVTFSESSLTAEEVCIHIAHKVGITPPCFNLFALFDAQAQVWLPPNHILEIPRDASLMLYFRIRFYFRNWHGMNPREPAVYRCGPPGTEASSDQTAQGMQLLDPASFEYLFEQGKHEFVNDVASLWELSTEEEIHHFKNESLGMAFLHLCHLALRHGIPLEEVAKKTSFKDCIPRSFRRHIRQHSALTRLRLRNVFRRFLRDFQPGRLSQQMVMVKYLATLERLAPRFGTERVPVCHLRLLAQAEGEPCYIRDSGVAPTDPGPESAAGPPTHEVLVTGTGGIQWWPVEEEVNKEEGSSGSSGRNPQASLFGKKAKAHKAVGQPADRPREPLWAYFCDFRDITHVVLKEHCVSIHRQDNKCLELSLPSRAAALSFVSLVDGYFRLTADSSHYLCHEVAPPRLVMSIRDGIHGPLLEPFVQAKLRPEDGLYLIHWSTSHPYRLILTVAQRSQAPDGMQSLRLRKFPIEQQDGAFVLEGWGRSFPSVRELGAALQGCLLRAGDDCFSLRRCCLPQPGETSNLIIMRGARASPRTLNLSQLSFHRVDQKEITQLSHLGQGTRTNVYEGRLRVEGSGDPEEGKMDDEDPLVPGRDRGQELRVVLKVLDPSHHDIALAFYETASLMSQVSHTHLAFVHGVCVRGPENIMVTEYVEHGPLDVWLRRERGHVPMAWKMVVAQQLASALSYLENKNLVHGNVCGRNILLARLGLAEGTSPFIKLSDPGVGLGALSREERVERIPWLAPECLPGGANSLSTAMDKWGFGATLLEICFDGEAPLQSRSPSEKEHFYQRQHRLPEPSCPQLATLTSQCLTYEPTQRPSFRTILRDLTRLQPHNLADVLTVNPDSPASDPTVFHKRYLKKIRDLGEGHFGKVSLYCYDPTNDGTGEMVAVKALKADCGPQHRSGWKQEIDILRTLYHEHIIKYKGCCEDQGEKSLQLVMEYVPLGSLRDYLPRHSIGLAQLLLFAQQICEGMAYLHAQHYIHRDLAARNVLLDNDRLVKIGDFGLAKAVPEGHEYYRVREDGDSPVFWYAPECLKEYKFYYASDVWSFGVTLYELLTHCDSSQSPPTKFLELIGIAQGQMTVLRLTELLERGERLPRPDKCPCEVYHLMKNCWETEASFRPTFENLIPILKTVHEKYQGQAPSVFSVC
In short: as §1

JAK1 = JAK1 (Homo sapiens (Human), UniProt P23458); experiment: Biochemical JAK1 kinase assay (LanthaScreen)
Sequence of JAK1 (P23458 whole entry): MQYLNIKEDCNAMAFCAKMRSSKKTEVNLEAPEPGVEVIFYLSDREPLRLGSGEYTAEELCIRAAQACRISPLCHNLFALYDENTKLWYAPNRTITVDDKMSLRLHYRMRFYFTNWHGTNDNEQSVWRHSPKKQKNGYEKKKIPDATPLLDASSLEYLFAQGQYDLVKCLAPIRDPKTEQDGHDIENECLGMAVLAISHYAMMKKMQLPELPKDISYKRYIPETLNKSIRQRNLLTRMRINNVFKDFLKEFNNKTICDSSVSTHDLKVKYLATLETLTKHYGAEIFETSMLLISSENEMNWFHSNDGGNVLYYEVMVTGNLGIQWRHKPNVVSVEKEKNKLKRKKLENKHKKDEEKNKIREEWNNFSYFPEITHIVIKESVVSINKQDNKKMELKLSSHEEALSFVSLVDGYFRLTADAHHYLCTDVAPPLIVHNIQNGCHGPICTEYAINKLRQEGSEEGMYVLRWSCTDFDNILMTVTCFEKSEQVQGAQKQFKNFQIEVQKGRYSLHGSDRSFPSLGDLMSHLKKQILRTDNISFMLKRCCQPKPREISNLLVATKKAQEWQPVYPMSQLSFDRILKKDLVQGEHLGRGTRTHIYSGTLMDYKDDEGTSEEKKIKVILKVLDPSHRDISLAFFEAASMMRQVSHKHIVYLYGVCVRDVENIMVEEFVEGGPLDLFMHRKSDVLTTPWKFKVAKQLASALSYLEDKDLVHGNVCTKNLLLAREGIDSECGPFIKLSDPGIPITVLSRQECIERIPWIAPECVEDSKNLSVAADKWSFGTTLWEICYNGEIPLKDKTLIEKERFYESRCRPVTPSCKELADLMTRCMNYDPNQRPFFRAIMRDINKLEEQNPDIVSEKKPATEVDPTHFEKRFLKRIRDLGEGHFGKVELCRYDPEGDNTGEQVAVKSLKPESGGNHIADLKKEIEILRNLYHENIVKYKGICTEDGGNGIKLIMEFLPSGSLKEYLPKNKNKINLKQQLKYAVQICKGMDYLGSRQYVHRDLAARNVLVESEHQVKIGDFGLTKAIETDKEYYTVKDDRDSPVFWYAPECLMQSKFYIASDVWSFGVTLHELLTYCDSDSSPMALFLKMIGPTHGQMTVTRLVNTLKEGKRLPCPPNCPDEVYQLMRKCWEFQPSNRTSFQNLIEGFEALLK
In short: as §1

[2] = selectivity JAK3 over JAK1, difference of pKi
[3] = IL-2 stimulated pSTAT5, Tall-1 T cells
[4] = selectivity, difference of pKi values
[5] = IL-2 stimulated pSTAT5 in Tall-1 T cells

Sequence of JAK3 (P52333 whole entry): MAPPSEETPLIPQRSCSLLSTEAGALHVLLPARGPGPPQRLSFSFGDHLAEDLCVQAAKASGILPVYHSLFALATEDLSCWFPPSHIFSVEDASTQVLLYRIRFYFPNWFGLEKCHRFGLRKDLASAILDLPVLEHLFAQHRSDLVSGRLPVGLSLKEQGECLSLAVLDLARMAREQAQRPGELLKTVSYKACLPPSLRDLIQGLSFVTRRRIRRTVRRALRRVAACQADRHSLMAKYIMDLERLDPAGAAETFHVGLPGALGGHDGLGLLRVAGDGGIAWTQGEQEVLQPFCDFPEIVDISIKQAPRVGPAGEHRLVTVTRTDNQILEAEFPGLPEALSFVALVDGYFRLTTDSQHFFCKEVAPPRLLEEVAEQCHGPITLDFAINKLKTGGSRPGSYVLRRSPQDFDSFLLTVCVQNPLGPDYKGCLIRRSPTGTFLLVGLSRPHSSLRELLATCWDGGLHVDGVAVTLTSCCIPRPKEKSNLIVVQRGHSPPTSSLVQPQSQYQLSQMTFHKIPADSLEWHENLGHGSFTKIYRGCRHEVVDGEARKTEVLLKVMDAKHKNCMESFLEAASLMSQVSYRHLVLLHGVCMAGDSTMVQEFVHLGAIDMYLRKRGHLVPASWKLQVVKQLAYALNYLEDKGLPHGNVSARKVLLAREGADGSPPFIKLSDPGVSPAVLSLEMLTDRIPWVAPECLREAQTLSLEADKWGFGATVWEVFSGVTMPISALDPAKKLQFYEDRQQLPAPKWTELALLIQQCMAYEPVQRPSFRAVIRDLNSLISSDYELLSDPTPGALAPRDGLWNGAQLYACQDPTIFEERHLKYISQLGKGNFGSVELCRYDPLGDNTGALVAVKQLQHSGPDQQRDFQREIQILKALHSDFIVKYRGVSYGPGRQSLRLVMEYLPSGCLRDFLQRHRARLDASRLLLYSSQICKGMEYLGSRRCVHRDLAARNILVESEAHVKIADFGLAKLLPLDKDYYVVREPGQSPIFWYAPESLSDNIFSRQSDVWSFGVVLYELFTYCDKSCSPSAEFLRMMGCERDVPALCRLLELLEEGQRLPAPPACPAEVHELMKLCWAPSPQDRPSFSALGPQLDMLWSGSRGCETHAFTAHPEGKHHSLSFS

SMILES | JAK 3 (pKi) (JAK3) | JAK3 (pKi)-JAK1 (pKi) (JAK3; [2]) | Tall-1 (pIC50) [1, 3] | JAK 2 (pKi) (JAK2) | Tyk 2 (pKi) (Tyk2) | JAK 1 (pKi) (JAK1) | JAK3 (pKi)-JAK1 (pKi) (JAK3; [4]) | Tall-1 (pIC50) [1, 5]
C=CC(=O)N1CCN(CCn2c(=O)ccc3cnc(Nc4ccc(N5CCN(CC)CC5)cc4)nc32)CC1 [Example 204] | A (A represents a pKi value≥10 (Ki≤0.1 nM)) | A (A represents a value of 3 or above) | A (A represents a pIC50 value≥7.5 (IC50≤32 nM)) | E (E represents a pKi value of 7 or below (Ki of 100 nM or above)) | E (E represents a pKi value of 7 or below (Ki of 100 nM or above)) | E (E represents a pKi value of 7 or below (Ki of 100 nM or above)) |  | 
C=CC(=O)N1CC(CCn2c(=O)ccc3cnc(Nc4ccc(N5CCN(CCN6CCCCC6)CC5)cc4)nc32)C1 [Example 113] | B (B represents pKi value between 9 and 10 (Ki between 1 nM and 0.1 nM)) | A (A represents a value of 3 or above) | A (A represents a pIC50 value≥7.5 (IC50≤32 nM)) | E (E represents a pKi value of 7 or below (Ki of 100 nM or above)) | E (E represents a pKi value of 7 or below (Ki of 100 nM or above)) | E (E represents a pKi value of 7 or below (Ki of 100 nM or above)) |  | 
C=CC(=O)N1CC(CCn2c(=O)ccc3cnc(Nc4ccc(N5CCN(C(C)C)CC5)cc4)nc32)C1 [Example 120] | B (B represents pKi value between 9 and 10 (Ki between 1 nM and 0.1 nM)) | A (A represents a value of 3 or above) | A (A represents a pIC50 value≥7.5 (IC50≤32 nM)) | E (E represents a pKi value of 7 or below (Ki of 100 nM or above)) | E (E represents a pKi value of 7 or below (Ki of 100 nM or above)) | E (E represents a pKi value of 7 or below (Ki of 100 nM or above)) |  | 
C=CC(=O)N1CC(C(C)Cn2c(=O)ccc3cnc(Nc4ccc(N5CCN(C)CC5)cc4)nc32)C1 (stereo not drawn) [Example 234] | B (B represents pKi value between 9 and 10 (Ki between 1 nM and 0.1 nM)) | A (A represents a value of 3 or above) | B (B represents a pC50 value between 6.7 (included) and 7.5 (IC50 between 200 nM and 32 nM)) | E (E represents a pKi value of 7 or below (Ki of 100 nM or above)) | E (E represents a pKi value of 7 or below (Ki of 100 nM or above)) | E (E represents a pKi value of 7 or below (Ki of 100 nM or above)) |  | 
C=CC(=O)N1CCN(CCn2c(=O)ccc3cnc(Nc4cnn(C5CCOCC5)c4)nc32)[C@@H](C)C1 [Example 250] | B (B represents pKi value between 9 and 10 (Ki between 1 nM and 0.1 nM)) |  |  | E (E represents a pKi value of 7 or below (Ki of 100 nM or above)) | E (E represents a pKi value of 7 or below (Ki of 100 nM or above)) | E (E represents a pKi value of 7 or below (Ki of 100 nM or above)) | A (A represents a value of 3 or above) | B (B represents a pC50 value between 6.7 (included) and 7.5 (IC50 between 200 nM and 32 nM))
C=CC(=O)N1CC(CCn2c(=O)ccc3cnc(Nc4ccc(N5CCN(C(=O)NC)CC5)cc4)nc32)C1 [Example 93] | A (A represents a pKi value≥10 (Ki≤0.1 nM)) | A (A represents a value of 3 or above) | B (B represents a pC50 value between 6.7 (included) and 7.5 (IC50 between 200 nM and 32 nM)) | E (E represents a pKi value of 7 or below (Ki of 100 nM or above)) | E (E represents a pKi value of 7 or below (Ki of 100 nM or above)) | E (E represents a pKi value of 7 or below (Ki of 100 nM or above)) |  | 
C=CC(=O)N1CCN(CCn2c(=O)ccc3cnc(Nc4ccc(N5CCN(C)[C@@H](C)C5)cc4)nc32)[C@@H](C)C1 [Example 251] | B (B represents pKi value between 9 and 10 (Ki between 1 nM and 0.1 nM)) |  |  | E (E represents a pKi value of 7 or below (Ki of 100 nM or above)) | E (E represents a pKi value of 7 or below (Ki of 100 nM or above)) | E (E represents a pKi value of 7 or below (Ki of 100 nM or above)) | A (A represents a value of 3 or above) | B (B represents a pC50 value between 6.7 (included) and 7.5 (IC50 between 200 nM and 32 nM))
